{"source": "paper PMC12546632", "about": "“The role of cytochrome bc1 inhibitors in future tuberculosis treatment regimens” (Nature Communications, 2025)", "key": {"WT H37Rv": {"test_system": "WT H37Rv", "type": "cell-based, Mycobacterium tuberculosis", "settings": "biological replicates"}, "N1283 clinical isolate": {"test_system": "N1283 clinical isolate", "type": "cell-based, Mycobacterium tuberculosis", "settings": "biological replicates"}, "[1]": {"test_system": "M. tuberculosis ΔcydAB (Parent)", "experiment": "microbe, parasite or virus in culture", "type": "cell-based", "settings": "Mycobacterium tuberculosis"}, "M. tuberculosis HN878": {"test_system": "M. tuberculosis HN878", "settings": "telacebec added to BPaC, after 4 weeks of treatment; cited from earlier work"}}, "note": "“And” between values parts separate entries of the source, which are not always exact repeats. Identical values can stand only once. Like-named read-outs stand apart in the source and are kept apart here.", "data": [{"compound": "CCc1nc2ccc(Cl)cn2c1C(=O)NCc1ccc(N2CCC(c3ccc(OC(F)(F)F)cc3)CC2)cc1", "note": "[telacebec, reference compound]", "values": [{"measurement": "CFU counts", "setting": "WT H37Rv; Conc 8 nM", "value": "30000000 CFU and 50000000 CFU"}, {"measurement": "CFU counts", "setting": "WT H37Rv; Conc 32 nM", "value": "19000000 CFU and 32000000 CFU and 49500000 CFU"}, {"measurement": "CFU counts", "setting": "WT H37Rv; Conc 128 nM", "value": "20000000 CFU and 17000000 CFU and 41500000 CFU and 12000000 CFU"}, {"measurement": "CFU counts", "setting": "N1283 clinical isolate; Conc 8 nM", "value": "16000000 CFU and 19000000 CFU and 60000000 CFU and 40000000 CFU"}, {"measurement": "CFU counts", "setting": "N1283 clinical isolate; Conc 32 nM", "value": "130000 CFU and 900000 CFU and 7000000 CFU and 8000000 CFU"}, {"measurement": "CFU counts", "setting": "N1283 clinical isolate; Conc 128 nM", "value": "180000 CFU and 380000 CFU and 120000 CFU and 150000 CFU"}, {"measurement": "MIC50", "setting": "[1]", "value": 0.01, "unit": "µM"}, {"measurement": "reduction in lung bacterial burden compared to BPaC alone", "setting": "M. tuberculosis HN878", "value": 2, "unit": "log"}]}]}
